Results on 19 molecules are retold here after patent US7071180B2, “Certain arylaliphatic and heteroaryl-aliphatic piperazinyl pyrazines and their use in the treatment of serotonin-related diseases” (Biovitrum AB, priority 1999, dated 2006).

Test system in the first data set: not given
Assay: not given
The settings on record: controlled studies; cited from earlier work.
Regarding `CCN[C@@H](C)Cc1cccc(C(F)(F)F)c1` [dexfenfluramine], the body weight effect entry is “weight reduction”.
As to `CNCCC(Oc1ccc(C(F)(F)F)cc1)c1ccccc1` (stereo not drawn) [fluoxetine], the body weight effect result is “weight reduction”.

The data set is the same for the next values; noted with them: obese subjects, after 2 weeks of treatment; cited from earlier work.
Regarding `Clc1cccc(N2CCNCC2)c1` [mCPP, m-chlorophenylpiperazine], the body weight effect result is given as “slight but sustained reduction in body weight”.

Another data set deals with T1, 5-HT2c receptor (Mus musculus, UniProt P34968).
T1 construct: mice that express the normal 5-HT2c receptor; host or cells: mice (in vivo)
T1 sequence (P34968 33-459): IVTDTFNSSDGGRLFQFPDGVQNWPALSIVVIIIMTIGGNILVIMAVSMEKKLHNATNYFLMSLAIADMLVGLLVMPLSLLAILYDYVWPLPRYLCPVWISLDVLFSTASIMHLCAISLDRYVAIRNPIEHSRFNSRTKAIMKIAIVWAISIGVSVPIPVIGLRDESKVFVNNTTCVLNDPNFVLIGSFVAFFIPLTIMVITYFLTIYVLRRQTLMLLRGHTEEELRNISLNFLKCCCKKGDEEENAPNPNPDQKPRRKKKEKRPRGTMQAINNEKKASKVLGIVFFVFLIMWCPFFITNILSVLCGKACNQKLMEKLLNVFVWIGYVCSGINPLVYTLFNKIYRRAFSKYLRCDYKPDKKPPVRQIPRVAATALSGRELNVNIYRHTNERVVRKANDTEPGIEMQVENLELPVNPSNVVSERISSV
Assay: not given
The settings on record: mice that express the normal 5-HT2c receptor; cited from earlier work.
Regarding `Clc1cccc(N2CCNCC2)c1` [mCPP, m-chlorophenylpiperazine], the body weight effect entry is “causes weight loss”.

Another data set relates to 5-HT2c receptor.
Assay: not given
The settings on record: mice expressing the mutated inactive form of the 5-HT2c receptor; cited from earlier work.
`Clc1cccc(N2CCNCC2)c1` [mCPP, m-chlorophenylpiperazine]: the body weight effect result was “lacks activity”.

Another data set deals with T2, human 5-HT2c receptor (Homo sapiens, UniProt P28335).
T2 construct: expressed in transfected cells
T2 sequence (P28335 33-458): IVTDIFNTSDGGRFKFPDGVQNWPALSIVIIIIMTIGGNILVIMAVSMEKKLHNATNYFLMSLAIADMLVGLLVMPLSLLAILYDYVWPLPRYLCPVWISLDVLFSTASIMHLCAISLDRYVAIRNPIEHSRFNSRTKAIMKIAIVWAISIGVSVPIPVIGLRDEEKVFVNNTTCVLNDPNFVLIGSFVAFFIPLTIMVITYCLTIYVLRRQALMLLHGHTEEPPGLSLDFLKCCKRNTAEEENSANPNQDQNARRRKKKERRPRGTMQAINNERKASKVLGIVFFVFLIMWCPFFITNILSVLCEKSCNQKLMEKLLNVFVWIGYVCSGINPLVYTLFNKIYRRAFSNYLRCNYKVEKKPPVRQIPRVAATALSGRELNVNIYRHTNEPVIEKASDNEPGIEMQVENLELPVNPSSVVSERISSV
The experiment in a line: 5-HT2c receptor affinity assay (displacement of 3H-labelled 5-HT, Scintillation Proximity Assay). The settings on record: displacement of 3H-5-HT from membranes of transfected HEK293 cells expressing human 5-HT2c receptor; non-specific binding 5 μM mianserin. As for the experimental part: The 5-HT2c receptor affinity of compounds in the Examples was determined in competition experiments, where the ability of each compound in serial dilution to displace ^3H-labelled 5-HT, bound to membranes prepared from a transfected HEK293 cell line stably expressing the human 5-HT2c receptor protein was monitored by Scintillation Proximity Assay technology. Non-specific binding was defined using 5 μM mianserin. Typically, the 5HT2c receptor affinity values (Ki, nM) were in the range of 1 nM to 1500 nM.
Background: In a radioligand displacement assay an active substance lowers the binding of a labelled ligand.
Molecule `NC1CCN(c2nccnc2OCCOc2ccccc2Cl)C1` (stereo not drawn) [Example 23, 2-(2-Chlorophenoxy)ethyl 3-(3-amino-1-pyrrolidinyl)-2-pyrazinyl ether] came in with a Ki of 377 nM. In other words, the sub-micromolar range.
The molecule `COc1cc(OC)cc(OCCOc2nccnc2N2CCNCC2)c1` [Example 57, 2-(3,5-Dimethoxyphenoxy)ethyl 3-(1-piperazinyl)-2-pyrazinyl ether] yielded a Ki of 24 nM. This Ki is about 16-fold lower than that of the molecule before.
Same read-out and setting: the value for `O=C1CCc2c(OCCOc3nccnc3N3CCNCC3)cccc21` [Example 82, 2-(1-Oxoindanyl-4-yloxy)ethyl 3-(1-piperazinyl)-2-pyrazinyl ether] was 116 nM; that for `c1ccc2oc(COc3nccnc3N3CCNCC3)cc2c1` [Example 122, 2-(Benzofuran-2-ylmethoxy)-3-(1-piperazinyl)pyrazine] was 45 nM.
`c1ccc(CCCOc2nccnc2N2CCNCC2)nc1` [Example 125, 2-(1-piperazinyl)-3-[3-(2-pyridinyl)propoxy]pyrazine]: the affinity corresponds to a Ki of 171 nM.
On to `c1cncc(OCCOc2nccnc2N2CCNCC2)c1` [Example 150, 2-(3-Pyridyloxy)ethyl 3-(1-piperazinyl)-2-pyrazinyl ether], for which the Ki is 50 nM.
As for `c1cc(OCCOc2nccnc2N2CCNCC2)ccn1` [Example 151, 2-(4-Pyridyloxy)ethyl 3-(1-piperazinyl)-2-pyrazinyl ether], the affinity, expressed as Ki, was 185 nM.
The molecule `c1ccc2c(c1)NCC(COc1nc3ccccc3nc1N1CCNCC1)O2` (stereo not drawn) [Example 167, 2-(3,4-Dihydro-2H-1,4-benzoxazin-2-ylmethoxy)-3-(1-piperazinyl)quinoxaline] came in with a Ki of 34 nM.
Molecule `C[C@@H]1CNCCN1c1nccnc1OCCOc1cccnc1` [Example 173, (2R)-Methyl-1-{3-[2-(3-pyridinyloxy)ethoxy]-2-pyrazinyl}piperazine] came in with an inhibitory constant (Ki) of 16 nM.
For the molecule `Cc1nc(OCCOc2ccccc2)c(N2CCNCC2)nc1C` [Example 183, 5,6-Dimethyl-2-(2-phenoxyethoxy)-3-(1-piperazinyl)pyrazine], affinity was put at a Ki of 10 nM.
On the same count and under the same terms, the value for `C[C@@H]1CNCCN1c1nccnc1OCCOc1cccnc1Cl` [Example 194, (2R)-1-(3-{2-[(2-Chloro-3-pyridinyl)oxy]ethoxy}-2-pyrazinyl)-2-methylpiperazine] was 5 nM; that for `c1ccc(COc2cccc(OCCOc3nccnc3N3CCNCC3)c2)cc1` [Example 231, 2-{2-[3-(Benzyloxy)phenoxy]ethoxy}-3-(1-piperazinyl)pyrazine] was 12 nM.

Test system in a further data set: not given
Assay: not given
Settings: not given
Consider `c1cnc(N2CCNCC2)c(OCCOc2ccc3cc[nH]c3c2)n1` [Example 142, 6-(2-{[3-(1-piperazinyl)-2-pyrazinyl]oxy}ethoxy)-1H-indole], for which the melting point lay in the range of 111 to 113 °C.
The molecule `O=[N+]([O-])c1ccc2c(c1)OC(COc1nccnc1N1CCNCC1)CO2` (stereo not drawn) [Example 146, 2-(7-Nitro-2,3-dihydro-1,4-benzodioxin-2-ylmethoxy)-3-(1-piperazinyl)pyrazine] came in with a melting point of 133 to 135 °C.
Take `c1ccc2nc(N3CCNCC3)c(OCCOc3cncnc3)nc2c1` [Example 166, 2-[2-(5-Pyrimidinyloxy)ethoxy]-3-(1-piperazinyl)quinoxaline]: the melting point lay in the range of 115 to 117 °C.
Same read-out and setting: under `CNc1ccc2cccc(OCCOc3nccnc3N3CCNCC3)c2n1` [Example 181, N-Methyl-8-(2-{[3-(1-piperazinyl)-2-pyrazinyl]oxy}ethoxy)-2-quinolinamine] stands 54 to 56.5 °C.

What is called Ki is the dissociation constant of the complex between target and ligand, obtained from inhibition or displacement. A higher Ki goes with lower affinity. Broadly, the melting point is the temperature, or range, at which the solid turns liquid.
